Reference: PubChem BioAssay (NCI)
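Growth conditions: 96-well plates. Treatment: test compound, 48 hours, 5 concentrations. Analysis: linear interpolation between bracketing concentrations; unreached endpoints set to highest concentration. At the TGI there is no net growth.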

Tests used:
Assay in all cases: NCI-60 cell line screen, 48 h
COLO 205 colon = tested on: COLO 205 colon
DU-145 prostate = tested on: DU-145 prostate
HOP-92 NSCLC = tested on: HOP-92 NSCLC
HT29 colon = tested on: HT29 colon
LOX IMVI melanoma = tested on: LOX IMVI melanoma
M14 melanoma = tested on: M14 melanoma
MCF7 breast = tested on: MCF7 breast
MDA-MB-435 = tested on: MDA-MB-435
NCI/ADR-RES ovarian = tested on: NCI/ADR-RES ovarian
OVCAR-4 ovarian = tested on: OVCAR-4 ovarian
OVCAR-5 ovarian = tested on: OVCAR-5 ovarian
OVCAR-8 ovarian = tested on: OVCAR-8 ovarian
RXF 393 renal = tested on: RXF 393 renal
SK-MEL-5 melanoma = tested on: SK-MEL-5 melanoma
SN12C renal = tested on: SN12C renal
SNB-19 CNS = tested on: SNB-19 CNS
U251 CNS = tested on: U251 CNS
UO-31 renal = tested on: UO-31 renal
CAKI-1 renal = tested on: CAKI-1 renal
NCI-H460 lung = tested on: NCI-H460 lung

Row | Structure (SMILES) | TGI (COLO 205 colon) [µM] | TGI (DU-145 prostate) [µM] | TGI (HOP-92 NSCLC) [µM] | TGI (HT29 colon) [µM] | TGI (LOX IMVI melanoma) [µM] | TGI (M14 melanoma) [µM] | TGI (MCF7 breast) [µM] | TGI (MDA-MB-435) [µM] | TGI (NCI/ADR-RES ovarian) [µM] | TGI (OVCAR-4 ovarian) [µM] | TGI (OVCAR-5 ovarian) [µM] | TGI (OVCAR-8 ovarian) [µM] | TGI (RXF 393 renal) [µM] | TGI (SK-MEL-5 melanoma) [µM] | TGI (SN12C renal) [µM] | TGI (SNB-19 CNS) [µM] | TGI (U251 CNS) [µM] | TGI (UO-31 renal) [µM] | TGI (CAKI-1 renal) [µM] | TGI (NCI-H460 lung) [µM]
1 | CCOC(=O)N/N=C(/N)Cc1ccc(Cl)cc1 | > 100 | > 100 | > 100 | > 100 | > 100 | > 100 | > 100 | > 100 | > 100 | > 100 | > 100 | > 100 | > 100 | > 100 | > 100 | > 100 | > 100 | > 100 |  | 
2 | COc1ccc(-c2cc(-c3ccc(Nc4ccnc5cc(C(F)(F)F)ccc45)cc3)nc(N)c2C#N)c2ccccc12 | > 100 | > 100 | > 100 |  | > 100 | > 100 | > 100 | > 100 | > 100 | > 100 | > 100 |  | > 100 | > 100 |  | > 100 | > 100 | > 100 | > 100 | > 100
3 | CCCCCCCCCCCCCCCC(=O)OCC(COP(=O)(O)OCCNC(=O)CCSSc1ccccn1)OC(=O)CCCCCCCCCCCCCCC (stereo not given) | > 100 | > 100 | > 100 | > 100 |  | > 100 | > 100 | > 100 | > 100 | > 100 | > 100 | > 100 | > 100 | > 100 | > 100 | > 100 | > 100 | > 100 | > 100 | > 100
4 | CCCCN1/C(=N/Nc2n[nH]c(=O)c3ccccc23)SCC1c1ccc(Cl)cc1 (stereo not given) | > 100 | > 100 | > 100 | 96.1 |  | 19.5 | 33.2 | 31.9 | 47 | > 100 | 61 | > 100 | 63.1 | 14.3 | > 100 | 42 | 21.2 | 93.3 | 77.4 | 24.8
5 | COc1ccc(NC(=S)Nc2cccc(C)n2)cc1 | > 100 | > 100 | > 100 | > 100 | > 100 | > 100 | > 100 | > 100 | > 100 | > 100 |  | > 100 | > 100 | > 100 |  | > 100 | > 100 | > 100 | > 100 | > 100
6 | Cn1c(=O)c2c(n(C)c1=O)n1c(=O)c3ccccc3nc1n2C | > 100 | > 100 | > 100 | > 100 | > 100 | > 100 | > 100 | > 100 | > 100 | > 100 | > 100 | > 100 | > 100 | > 100 | > 100 | > 100 | > 100 | > 100 | > 100 | 
7 | CO[C@@H](c1ccccc1)[C@H](O)[C@@](O)(c1ccccc1)P(=O)(OC)OC | > 100 | > 100 | > 100 | > 100 | > 100 | > 100 | > 100 | > 100 | > 100 |  | > 100 | > 100 | > 100 | > 100 | > 100 | > 100 | > 100 | > 100 | > 100 | > 100
8 | O=C1C[C@@]23CCC4(CC2=CCC[C@H]3O1)OCCO4 | > 100 | > 100 | > 100 | > 100 | > 100 | > 100 | > 100 | > 100 | > 100 | > 100 | > 100 |  | > 100 | > 100 | > 100 | > 100 | > 100 |  | > 100 | > 100
9 | CCN(CCCl)c1ccc(NC(=O)c2cc(C(=O)NCCN(C)C)cc(C(=O)Nc3ccc(N(CC)CCCl)cc3)c2)cc1 |  | 39.2 | 29.8 | 11.8 | 12.8 | 28.2 | 19.6 | 33.9 | > 100 | 43.5 | 87.1 | 25.2 | 30.8 | 30.7 | 21 | 19.9 | 22.1 | > 100 | > 100 | 28
10 | N#Cc1c(N)n(-c2nc3ccccc3s2)c(=O)c2cc([N+](=O)[O-])ccc12 |  | > 100 | 42.3 | 14.3 | 19.7 | > 55 | 41.3 | > 69.1 | 22.8 | > 100 | > 79 | 43.9 | 41.9 |  | > 100 | > 77.1 | > 100 | > 79.2 | 58.5 | > 65.8
11 | Nc1nc(N)c2ncn(Cc3ccccc3)c2n1 | > 100 | > 100 | > 100 | > 100 |  | > 100 | > 100 | > 100 | > 100 | > 100 | > 100 | > 100 | > 100 | > 100 | > 100 | > 100 | > 100 | > 100 | > 100 | 
12 | Nc1nc2c(c(-c3ccc(F)cc3)n1)COC/C2=C\c1ccc(F)cc1 | > 100 | > 100 | > 100 | 29.3 |  | > 100 | > 100 | > 100 | > 100 | > 100 | > 100 | > 100 | > 100 | > 100 | > 100 | > 100 | 31 | 50 | > 100 | 34
13 | Clc1cc2ncn(C3CCCO3)c2cc1Cl (stereo not given) | > 100 | > 100 | > 100 | > 100 | > 100 | > 100 | > 100 | > 100 | > 100 | > 100 | > 100 | > 100 | > 100 | > 100 | > 100 | > 100 | > 100 | 53.6 | > 100 | 
